From ChEMBL document CHEMBL5150060 (J Med Chem, 2022)
Active and inactive are the calls of the source. The rule behind the calls is not given here.

What was measured:
Histone deacetylase 3 = Histone deacetylase 3 (Homo sapiens, UniProt O15379); experiment: Inhibition of recombinant human HDAC3 using p53 (Ac-RHKK(Acetyl)-AMC) as substrate preincubated for 5 mins followed by substrate addition and measured after 30 mins by fluorescence based analysis
Histone deacetylase 1 [1] = target: T1, Histone deacetylase 1 (Homo sapiens, UniProt Q13547); experiment: Inhibition of recombinant human HDAC1 using p53 (Ac-RHKK(Acetyl)-AMC) as substrate preincubated for 5 mins followed by substrate addition and measured after 90 mins by fluorescence based analysis
HEK293 = experiment: Cytotoxicity against HEK293 cells assessed as reduction in cell viability at 50 uM after 24 hrs by alamar blue assay; assay type: toxicity, cell-based; settings: human, hek293, 24 h
Histone deacetylase 8 = target: T2, Histone deacetylase 8 (Homo sapiens, UniProt Q9BY41); experiment: Inhibition of recombinant human HDAC8 using (Abz-SRGK(thio-TFA)FFRR-NH2) as substrate preincubated for 5 mins followed by substrate addition by fluorescence based analysis
T2 sequence (Q9BY41 whole entry): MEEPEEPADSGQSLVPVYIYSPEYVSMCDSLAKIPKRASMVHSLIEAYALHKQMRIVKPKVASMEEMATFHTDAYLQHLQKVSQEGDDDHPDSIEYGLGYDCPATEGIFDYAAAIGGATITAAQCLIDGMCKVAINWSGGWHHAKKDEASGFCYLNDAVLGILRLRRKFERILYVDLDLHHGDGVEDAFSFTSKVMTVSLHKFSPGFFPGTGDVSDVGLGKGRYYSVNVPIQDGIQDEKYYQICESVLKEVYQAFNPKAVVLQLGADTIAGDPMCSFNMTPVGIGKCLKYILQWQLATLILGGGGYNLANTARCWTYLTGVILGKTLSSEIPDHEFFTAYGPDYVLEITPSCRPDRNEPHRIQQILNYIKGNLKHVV

Histone deacetylase 2 [2] = target: T3, Histone deacetylase 2 (Homo sapiens, UniProt Q92769); experiment: Inhibition of recombinant human HDAC2 using p53 (Ac-RHKK(Acetyl)-AMC) as substrate preincubated for 5 mins followed by substrate addition and measured after 30 mins by fluorescence based analysis
[3] = target: T4, Protein deacetylase HDAC6 (Homo sapiens, UniProt Q9UBN7); experiment: Inhibition of recombinant human HDAC6 (unknown origin)
T4 sequence (Q9UBN7 whole entry): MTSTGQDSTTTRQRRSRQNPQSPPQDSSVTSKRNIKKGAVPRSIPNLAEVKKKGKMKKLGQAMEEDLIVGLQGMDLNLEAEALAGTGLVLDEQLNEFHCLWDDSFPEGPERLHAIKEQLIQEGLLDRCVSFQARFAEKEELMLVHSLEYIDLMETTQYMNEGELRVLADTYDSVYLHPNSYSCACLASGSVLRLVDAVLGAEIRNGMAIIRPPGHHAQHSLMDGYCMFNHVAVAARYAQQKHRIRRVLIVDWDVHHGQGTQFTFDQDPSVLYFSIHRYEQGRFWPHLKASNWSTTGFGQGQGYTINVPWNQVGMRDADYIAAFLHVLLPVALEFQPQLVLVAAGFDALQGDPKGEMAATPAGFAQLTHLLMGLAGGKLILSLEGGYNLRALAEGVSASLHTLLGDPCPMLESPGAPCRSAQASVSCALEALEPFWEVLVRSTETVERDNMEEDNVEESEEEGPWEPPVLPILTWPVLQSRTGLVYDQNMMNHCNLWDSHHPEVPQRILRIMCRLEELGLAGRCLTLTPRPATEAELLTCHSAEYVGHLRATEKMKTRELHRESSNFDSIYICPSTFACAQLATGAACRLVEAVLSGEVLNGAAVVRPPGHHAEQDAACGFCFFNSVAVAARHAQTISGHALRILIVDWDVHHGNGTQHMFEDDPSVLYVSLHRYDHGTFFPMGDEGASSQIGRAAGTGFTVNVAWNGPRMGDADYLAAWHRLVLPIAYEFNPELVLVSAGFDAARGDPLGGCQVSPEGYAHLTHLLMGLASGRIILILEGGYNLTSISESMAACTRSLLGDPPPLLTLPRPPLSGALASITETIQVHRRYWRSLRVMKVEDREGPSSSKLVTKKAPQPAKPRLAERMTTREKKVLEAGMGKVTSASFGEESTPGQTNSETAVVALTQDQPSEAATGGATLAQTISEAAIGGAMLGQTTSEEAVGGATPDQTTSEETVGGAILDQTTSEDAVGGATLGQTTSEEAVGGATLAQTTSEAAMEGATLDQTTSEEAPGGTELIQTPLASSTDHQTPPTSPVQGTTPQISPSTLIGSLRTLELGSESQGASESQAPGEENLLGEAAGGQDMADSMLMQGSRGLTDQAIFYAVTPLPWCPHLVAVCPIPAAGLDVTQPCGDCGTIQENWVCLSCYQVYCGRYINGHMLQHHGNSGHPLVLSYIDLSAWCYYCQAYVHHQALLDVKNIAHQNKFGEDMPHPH

Histone deacetylase 11 = target: T5, Histone deacetylase 11 (Homo sapiens, UniProt Q96DB2); experiment: Inhibition of recombinant human HDAC11 preincubated for 10 mins followed by substrate addition by fluorescence based analysis
T5 sequence (Q96DB2 whole entry): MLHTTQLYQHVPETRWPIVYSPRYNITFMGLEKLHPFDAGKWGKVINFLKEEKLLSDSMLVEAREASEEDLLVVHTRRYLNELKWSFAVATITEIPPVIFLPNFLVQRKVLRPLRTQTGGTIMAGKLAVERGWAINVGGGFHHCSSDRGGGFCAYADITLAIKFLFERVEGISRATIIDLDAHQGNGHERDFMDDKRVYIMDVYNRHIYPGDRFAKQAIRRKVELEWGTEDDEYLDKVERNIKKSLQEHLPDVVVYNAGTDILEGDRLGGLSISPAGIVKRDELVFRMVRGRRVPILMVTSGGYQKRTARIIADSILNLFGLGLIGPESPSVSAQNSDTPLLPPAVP

Histone deacetylase 4 = Histone deacetylase 4 (Homo sapiens, UniProt P56524); experiment: Inhibition of HDAC4 (unknown origin)
Histone deacetylase 2 [4] = target: T3, Histone deacetylase 2; experiment: Inhibition of recombinant human HDAC2 at 1 uM using p53 (Ac-RHKK(Acetyl)-AMC) as substrate preincubated for 5 mins followed by substrate addition and measured after 30 mins by fluorescence based analysis relative to control; settings: time 35.0 min
[5] = target: T6, Histone deacetylase 8 (Homo sapiens) (UniProt Q9BY41); experiment: Inhibition of recombinant human HDAC8 at 10 uM using (Abz-SRGK(thio-TFA)FFRR-NH2) as substrate preincubated for 5 mins followed by substrate addition by fluorescence based analysis relative to control
T6 sequence (whole entry): T2 sequence (Q9BY41 whole entry)

Histone deacetylase 1 [6] = target: T1, Histone deacetylase 1; experiment: Inhibition of recombinant human HDAC1 at 1 uM using p53 (Ac-RHKK(Acetyl)-AMC) as substrate preincubated for 5 mins followed by substrate addition and measured after 90 mins by fluorescence based analysis relative to control; settings: time 95.0 min
Histone deacetylase 2 [7] = target: T3, Histone deacetylase 2; experiment: Inhibition of recombinant human HDAC2 at 10 uM using p53 (Ac-RHKK(Acetyl)-AMC) as substrate preincubated for 5 mins followed by substrate addition and measured after 30 mins by fluorescence based analysis relative to control; settings: time 35.0 min
Histone deacetylase 1 [8] = target: T1, Histone deacetylase 1; experiment: Inhibition of recombinant human HDAC1 at 10 uM using p53 (Ac-RHKK(Acetyl)-AMC) as substrate preincubated for 5 mins followed by substrate addition and measured after 90 mins by fluorescence based analysis relative to control; settings: time 95.0 min
[9] = target: T6, Histone deacetylase 8 (Homo sapiens); experiment: Inhibition of recombinant human HDAC8 at 1 uM using (Abz-SRGK(thio-TFA)FFRR-NH2) as substrate preincubated for 5 mins followed by substrate addition by fluorescence based analysis relative to control
[10] = target: T6, Histone deacetylase 8 (Homo sapiens); experiment: Inhibition of HDAC8 in human Jurkat T cells assessed as increase in H3K27 acetylation at 10 uM after 6 hrs by Western blot analysis; assay type: cell-based

T1 sequence (Q13547 whole entry): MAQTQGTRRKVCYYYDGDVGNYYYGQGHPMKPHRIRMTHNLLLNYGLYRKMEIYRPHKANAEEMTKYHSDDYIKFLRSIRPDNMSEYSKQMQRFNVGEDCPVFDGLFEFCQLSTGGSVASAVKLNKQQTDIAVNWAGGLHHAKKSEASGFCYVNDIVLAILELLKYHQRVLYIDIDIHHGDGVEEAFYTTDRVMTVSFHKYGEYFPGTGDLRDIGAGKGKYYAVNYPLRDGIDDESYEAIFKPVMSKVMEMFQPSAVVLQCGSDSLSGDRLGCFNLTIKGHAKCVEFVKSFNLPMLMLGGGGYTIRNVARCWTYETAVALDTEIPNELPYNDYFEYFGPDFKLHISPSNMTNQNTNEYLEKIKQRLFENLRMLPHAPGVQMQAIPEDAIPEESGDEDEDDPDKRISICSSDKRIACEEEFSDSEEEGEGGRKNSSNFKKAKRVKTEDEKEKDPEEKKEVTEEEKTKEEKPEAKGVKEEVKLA
Sequence of Histone deacetylase 4 (P56524 whole entry): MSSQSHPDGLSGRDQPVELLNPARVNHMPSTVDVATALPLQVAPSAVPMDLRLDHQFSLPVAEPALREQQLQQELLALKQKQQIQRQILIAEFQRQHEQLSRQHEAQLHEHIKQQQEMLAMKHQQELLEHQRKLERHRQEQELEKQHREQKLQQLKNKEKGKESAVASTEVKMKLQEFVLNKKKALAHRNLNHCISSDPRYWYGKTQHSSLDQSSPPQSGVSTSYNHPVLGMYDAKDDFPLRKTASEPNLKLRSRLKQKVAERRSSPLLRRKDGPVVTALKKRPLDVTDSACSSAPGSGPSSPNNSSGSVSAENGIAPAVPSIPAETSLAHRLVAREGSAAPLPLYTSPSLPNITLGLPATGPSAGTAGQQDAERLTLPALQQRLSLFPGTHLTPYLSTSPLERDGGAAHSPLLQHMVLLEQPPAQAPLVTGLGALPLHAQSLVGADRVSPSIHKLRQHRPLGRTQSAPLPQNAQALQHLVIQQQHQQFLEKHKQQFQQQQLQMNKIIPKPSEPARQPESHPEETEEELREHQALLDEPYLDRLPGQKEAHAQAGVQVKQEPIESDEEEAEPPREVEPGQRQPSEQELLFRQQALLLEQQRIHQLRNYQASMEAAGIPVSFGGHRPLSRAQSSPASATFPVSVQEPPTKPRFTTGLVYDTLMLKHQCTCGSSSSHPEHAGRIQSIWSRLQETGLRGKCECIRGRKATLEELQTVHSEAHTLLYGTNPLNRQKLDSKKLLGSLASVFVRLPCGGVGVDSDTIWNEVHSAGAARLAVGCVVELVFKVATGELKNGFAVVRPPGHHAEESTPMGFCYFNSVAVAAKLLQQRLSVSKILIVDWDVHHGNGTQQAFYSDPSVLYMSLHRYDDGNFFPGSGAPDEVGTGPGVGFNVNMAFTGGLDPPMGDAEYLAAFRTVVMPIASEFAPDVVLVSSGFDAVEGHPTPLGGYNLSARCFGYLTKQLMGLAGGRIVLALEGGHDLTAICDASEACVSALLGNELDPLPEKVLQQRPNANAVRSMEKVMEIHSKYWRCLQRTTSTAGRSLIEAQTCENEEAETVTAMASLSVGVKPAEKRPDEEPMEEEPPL
Sequence of Histone deacetylase 3 (O15379 whole entry): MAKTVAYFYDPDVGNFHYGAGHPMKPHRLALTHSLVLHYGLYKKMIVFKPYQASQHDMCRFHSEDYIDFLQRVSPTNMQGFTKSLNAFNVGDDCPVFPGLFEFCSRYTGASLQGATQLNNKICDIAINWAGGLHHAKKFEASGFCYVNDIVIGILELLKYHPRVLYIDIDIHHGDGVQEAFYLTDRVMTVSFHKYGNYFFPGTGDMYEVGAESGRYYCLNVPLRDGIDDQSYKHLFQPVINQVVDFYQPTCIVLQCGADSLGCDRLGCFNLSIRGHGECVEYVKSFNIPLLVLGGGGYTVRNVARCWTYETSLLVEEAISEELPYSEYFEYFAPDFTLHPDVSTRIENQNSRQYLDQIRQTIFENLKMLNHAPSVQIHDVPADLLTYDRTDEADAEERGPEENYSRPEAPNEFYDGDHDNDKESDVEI
T3 sequence (Q92769 whole entry): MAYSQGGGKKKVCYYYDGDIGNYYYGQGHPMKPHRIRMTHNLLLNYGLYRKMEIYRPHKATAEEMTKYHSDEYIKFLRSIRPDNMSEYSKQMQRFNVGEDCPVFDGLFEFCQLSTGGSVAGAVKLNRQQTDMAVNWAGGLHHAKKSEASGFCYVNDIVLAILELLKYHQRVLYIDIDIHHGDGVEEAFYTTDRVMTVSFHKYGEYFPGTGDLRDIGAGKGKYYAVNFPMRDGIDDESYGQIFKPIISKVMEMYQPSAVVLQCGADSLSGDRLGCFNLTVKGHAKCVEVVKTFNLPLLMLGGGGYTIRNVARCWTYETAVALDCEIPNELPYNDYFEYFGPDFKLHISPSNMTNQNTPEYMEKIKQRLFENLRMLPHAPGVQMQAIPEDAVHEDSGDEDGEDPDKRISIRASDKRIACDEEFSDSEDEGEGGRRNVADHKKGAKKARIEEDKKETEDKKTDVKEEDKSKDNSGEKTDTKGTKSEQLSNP

| Compound | IC50 (Histone deacetylase 3) [nM] | IC50 (Histone deacetylase 1 [1]) [nM] | Cell viability (HEK293) [%] | IC50 (Histone deacetylase 8) [nM] | IC50 (Histone deacetylase 2 [2]) [nM] | IC50 [3] [µM] | IC50 (Histone deacetylase 11) [nM] | IC50 (Histone deacetylase 4) [µM] | inhibition (Histone deacetylase 2 [4]) [%] | inhibition [5] [%] | inhibition (Histone deacetylase 1 [6]) [%] | inhibition (Histone deacetylase 2 [7]) [%] | inhibition (Histone deacetylase 1 [8]) [%] | inhibition [9] [%] | inhibition [10] |
| --- | --- | --- | --- | --- | --- | --- | --- | --- | --- | --- | --- | --- | --- | --- | --- |
| CCCCCCNNC(=O)c1cnc(N2CCN(CCc3c[nH]c4ccccc34)CC2)nc1 | 1000 | 860 | 47.1 | 13 | 1400 | – | – | – | – | – | – | – | – | – | – |
| CCCCCCNNC(=O)c1cccc(NCc2ccccc2)c1 | > 20000 | > 20000 | 71.2 | 46 | > 20000 | > 20 | 8600 | > 20 | – | – | – | – | – | – | – |
| CCCNNC(=O)c1ccc(CNC(C)=O)cc1 | 1600 | 1600 | 81.2 | – | 5500 | – | – | – | – | – | – | – | – | – | – |
| CCCNNC(=O)c1cnc(NCc2ccc(Cl)cc2)nc1 | 37 | – | 83.2 | – | – | – | – | – | 61 | 88 | 54 | 96 | 92 | 62 | – |
| CCCNNC(=O)c1cnc(N2CCN(C)CC2)nc1 | 120 | 590 | 93.6 | 250 | 2400 | – | – | – | – | – | – | – | – | – | – |
| CCCCCCNNC(=O)c1ccc(CNC(C)=O)cc1 | > 20000 | 48000 | 113.3 | 23 | 12000 | – | – | – | – | – | – | – | – | – | – |
| CCCCCCNNC(=O)c1cnc(N2CCN(Cc3cn(C)c4ccccc34)CC2)nc1 | 300 | 170 | 1.6 | 14 | 330 | – | – | – | – | – | – | – | – | – | Active |
| CCCCCCNNC(=O)c1cnc(N2CCN(Cc3c[nH]c4ccccc34)CC2)nc1 | 100 | 170 | 2.18 | 5.9 | 310 | > 20 | 41 | > 20 | – | – | – | – | – | – | Active |
| CCCNNC(=O)c1cnc(NCc2cc(Cl)ccc2Cl)nc1 | 58 | – | 78.2 | – | – | – | – | – | – | 83 | 66 | – | 88 | 33 | – |
| CCCNNC(=O)c1cnc(NCc2ccccc2Cl)nc1 | 60 | – | 80.7 | – | – | – | – | – | 55 | 87 | 71 | 92 | 89 | 43 | – |
| CCCNNC(=O)c1cnc(NCc2ccccc2)nc1 | 43.2 | 250 | 80.9 | 1000 | 700 | > 20 | 2000 | > 20 | – | – | – | – | – | – | – |
| CCCCCNNC(=O)c1ccc(-c2ccc(CNC(C)=O)cc2)cc1 | 1500 | 660 | 90.8 | 350 | 2000 | – | – | – | – | – | – | – | – | – | – |
| CCCCCCNNC(=O)c1cnc(NCCc2ccccc2)nc1 | 7200 | 2200 | 90.1 | 28 | 12000 | – | – | – | – | – | – | – | – | – | Active |
| CCCCNNC(=O)c1ccc(-c2ccc(CNC(C)=O)cc2)cc1 | 350 | 620 | 80.1 | 360 | 1100 | – | – | – | – | – | – | – | – | – | – |
| CCCCCCNNC(=O)c1cnc(NCc2cccc3ccccc23)nc1 | > 20000 | 8300 | 65.7 | 63 | > 20000 | – | – | – | – | – | – | – | – | – | Active |
| CCCNNC(=O)c1cnc(NCc2ccc(CNC(C)=O)cc2)nc1 | 110 | 290 | 93.1 | – | 920 | – | – | – | – | – | – | – | – | – | Active |
| CCCNNC(=O)c1cnc(NCc2cccc3ccccc23)nc1 | 81 | – | 78.9 | – | – | – | – | – | 46 | 83 | 53 | 93 | 91 | 36 | – |
| CCCCCCNNC(=O)c1cnc(N2CCN(CCc3cn(C)c4ccccc34)CC2)nc1 | 1400 | 400 | 31.8 | 23 | 1200 | – | – | – | – | – | – | – | – | – | Active |
| CCCCCCNNC(=O)c1cnc(NCc2ccc(CNC(C)=O)cc2)nc1 | 8500 | 960 | 79.4 | 19 | 4500 | – | – | – | – | – | – | – | – | – | Active |
| CCCCNNC(=O)c1cnc(NCc2ccccc2)nc1 | 200 | – | 88.9 | – | – | – | – | – | 46 | 94 | 61 | 93 | 85 | 66 | – |
| CCCCCCNNC(=O)c1cnc(NCc2ccccc2)nc1 | 3000 | 560 | 88.4 | 16 | 3200 | – | – | – | – | – | – | – | – | – | – |
